Experimental data from patent publication US20250186456A1, “PYRIMIDINE-FUSED CYCLIC COMPOUND AND PREPARATION METHOD AND USE THEREOF” (Genfleet Therapeutics (Shanghai) Inc., priority 2021, published 2025).
pIC50: −log10 of the molar value. Read-outs that look alike come from different tables or passages of the source.

Assays:
Type in all cases: cell-based, human
[1] = test system: p-ERK in AGS cells (KRAS G12D mutation); assay: Cell p-ERK assay (HTRF, Advance ERK phospho-T202/Y204 kit); conditions: AGS cells, 3 hours incubation with compound, HTRF, read-out: AGS p-ERK IC50
Method in brief: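 Phospho-ERK (T202/Y204) measured by HTRF in lysates of human gastric AGS cells carrying KRAS G12D, after 3 h compound exposure at 0.1% DMSO over a 3.16-fold series. Percent inhibition relative to DMSO control and lysis-only blank; four-parameter curve fitting gave IC50.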

AGS cells (KRAS G12D) = assay: Cell proliferation inhibition assay, 3D, CellTiter-Glo 3D, AGS; conditions: AGS 3D sphere model, 5 days incubation
Method in brief: (§1)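 Spheroids (800 AsPC-1 or 400 AGS cells/well; RPMI-1640 or F-12K with 10% FBS) formed overnight, then were dosed on day 2 with a 3.16-fold series at 0.1% DMSO. After 5 days, viability was read by CellTiter-Glo 3D luminescence, and IC50 came from four-parameter fits of inhibition versus DMSO control and medium blank.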

[2] = test system: AsPC-1 cells (KRAS G12D mutation); assay: Cell proliferation inhibition assay, 3D, CellTiter-Glo 3D, AsPC-1; conditions: AsPC-1 3D sphere model, 5 days incubation
Method in brief: as §1

pIC50 [1] | pIC50 (AGS cells (KRAS G12D)) | pIC50 [2] | SMILES | pIC50 ([1]; Homo sapiens) | pIC50 (AGS cells (KRAS G12D); Homo sapiens, 120 h) | pIC50 ([2]; Homo sapiens, ASPC1, 120 h)
– | – | – | C#Cc1cccc2cccc(-c3nc4c5c(nc(OCC67CC(=C)CN6C[C@H](F)C7)nc5c3F)N3C[C@H]5CC[C@H](N5)[C@H]3[C@H](C)O4)c12 (stereo partly drawn) [Example Z678, (5S,5aS,6S,9R)-2-(8-ethynylnaphthalen-1-yl)-1-fluoro-12-(((2R)-2-fluoro-6-methylenetetrahydro-1H-pyrrolizin-7a (5H)-yl)methoxy)-5-methyl-5a,6,7,8,9,10-hexahydro-5H-4-oxa-3,10a, 11, 13,14-pentaaza-6,9-methanonaphtho[1,8-ab]heptalene] | 7.91 | 7.00 | 7.13
6.93 | 6.41 | 6.45 | C#Cc1c(F)ccc2cccc(-c3nc4c5c(nc(OCC67CC(=C)CN6C[C@H](F)C7)nc5c3F)N3CC5CCC(N5)C3C(CF)O4)c12 (stereo partly drawn) [Example Z679, 2-(8-Ethynyl-7-Fluoronaphthalen-1-Yl)-1-Fluoro-12-(((2R)-2-Fluoro-6-Methylenetetrahydro-1H-Pyrrolizin-7a (5H)-Yl)Methoxy)-5-(Fluoromethyl)-5a,6,7,8,9,10-Hexahydro-5H-4-Oxa-3.10a,11,13,14-Pentaaza-6,9-Methanonaphtho[1,8-Ab]Heptalene] | – | – | –
8.24 | 7.89 | 7.42 | C#Cc1c(F)ccc2cccc(-c3nc4c5c(nc(OCC67CC(OC)CN6CCC7=C)nc5c3F)N3C[C@H]5CC[C@H](N5)[C@H]3[C@H](C)O4)c12 (stereo partly drawn) [Example Z681, (5S,5aS,6S,9R)-2-(8-Ethynyl-7-Fluoronaphthalen-1-Yl)˜1-Fluoro-12-((6-Methoxy-1-Methylenetetrahydro-1H-Pyrrolizin-7a (5H)-Yl)Methoxy)-5-Methyl-5a,6,7,8,9,10-Hexahydro-5H-4-Oxa-3,10a,11,13,14-Pentaaza-6,9-Methanonaphtho[1,8-Ab]Heptalene] | – | – | –
– | – | – | C=C1CN2C[C@H](F)CC2(COc2nc3c4c(nc(-c5cccc(Cl)c5C(F)(F)F)c(F)c4n2)O[C@@H](C)[C@@H]2[C@@H]4CC[C@H](CN32)N4)C1 (stereo partly drawn) [Example Z682, (5S,5aS,6S,9R)-2-(3-chloro-2-(trifluoromethyl)phenyl)-1-fluoro-12-(((2R)-2-fluoro-6-methylenetetrahydro-1H-pyrrolizin-7a (5H)-yl)methoxy)-5-methyl-5a,6,7,8,9,10-hexahydro-5H-4-oxa-3,10a, 11,13,14-pentaaza-6,9-methanonaphtho[1,8-ab]heptalene] | 7.09 | 6.84 | 6.63
– | – | – | C#Cc1c(F)ccc2cccc(-c3nc4c5c(nc(OCC67CC(=C)CN6CCC7CO)nc5c3F)N3C[C@H]5CC[C@H](N5)[C@H]3[C@H](C)O4)c12 (stereo partly drawn) [Example Z683, (7a-((((5S,5aS,6S,9R)-2-(8-ethynyl-7-fluoronaphthalen-1-yl)-1-fluoro-5-methyl-5a,6,7,8,9,10-hexahydro-5H-4-oxa-3,10a,11,13,14-pentaaza-6,9-methanonaphtho[1,8-ab]heptalen-12-yl)oxy)methyl)-6-methylenehexahydro-1H-pyrrolizin-1-yl)methanol] | 8.23 | 7.64 | 7.10
– | – | – | C#Cc1cccc2cncc(-c3nc4c5c(nc(OCC67CC(=C)CN6C[C@H](F)C7)nc5c3F)N3C[C@H]5CC[C@H](N5)[C@H]3[C@H](C)O4)c12 (stereo partly drawn) [Example Z684, (5S,5aS,6S,9R)-2-(5-ethynylisoquinolin-4-yl)-1-fluoro-12-(((2R)-2-fluoro-6-methylenetetrahydro-1H-pyrrolizin-7a (5H)-yl)methoxy)-5-methyl-5a,6,7,8,9,10-hexahydro-5H-4-oxa-3,10a, 11,13,14-pentaaza-6,9-methanonaphtho[1,8-ab]heptalene] | 7.24 | 6.47 | 6.49
– | – | – | C#Cc1cccc2cc(N)nc(-c3nc4c5c(nc(OCC67CC(=C)CN6C[C@H](F)C7)nc5c3F)N3C[C@H]5CC[C@H](N5)[C@H]3[C@H](C)O4)c12 (stereo partly drawn) [Example Z685, 8-Ethynyl-1-((5S,5aS,68,9R)-1-Fluoro-12-(((2R)-2-Fluoro-6-Methylenetetrahydro-1H-Pyrrolizin-7a (5H)-Yl)Methoxy)-5-Methyl-5a,6,7,8,9,10-Hexahydro-5H-4-Oxa-3,10a,11,13,14-Pentaaza-6,9-Methanonaphtho[1,8-Ab]Heptalen-2-Yl) Isoquinolin-3-Amine] | 7.52 | 6.84 | 6.59
– | – | – | C#Cc1c(F)ccc2cccc(-c3nc4c5c(nc(OCC(=C)CN6CCOCC6)nc5c3F)N3C[C@H]5CC[C@H](N5)[C@H]3[C@H](C)O4)c12 [Example Z687, (5S,5aS,6S,9R)-2-(8-ethynyl-7-fluoronaphthalen-1-yl)-1-fluoro-5-methyl-12-((2-(morpholinomethyl)allyl)oxy)-5a,6,7,8,9,10-hexahydro-5H-4-oxa-3,10a,11,13,14-pentaaza-6,9-methanonaphtho[1,8-ab]heptalene] | 6.72 | 6.41 | 6.29
– | – | – | C#Cc1c(F)ccc2cccc(-c3nc4c5c(nc(OCC67C[C@@H](OC)CN6CCC7=C)nc5c3F)N3C[C@H]5CC[C@H](N5)[C@H]3[C@H](C)O4)c12 (stereo partly drawn) [Example Z688, (5S,5aS,6S,9R)-2-(8-Ethynyl-7-Fluoronaphthalen-1-Yl)-1-Fluoro-12-(((6R)-6-Methoxy-1-Methylenetetrahydro-1H-Pyrrolizin-7a (5H)-Yl)Methoxy)-5-Methyl-5a,6,7,8,9,10-Hexahydro-5H-4-Oxa-3,10a,11,13,14-Pentaaza-6,9-Methanonaphtho[1,8-Ab]Heptalene] | 8.06 | 7.70 | 7.41
– | – | – | C#Cc1c(F)ccc2cccc(-c3nc4c5c(nc(OCC67CC(=C)CN6C[C@H](OC)C7)nc5c3F)N3C[C@H]5CC[C@H](N5)[C@H]3[C@H](C)O4)c12 (stereo partly drawn) [Example Z691, (5S,5aS,6S,9R)-2-(8-Ethynyl-7-Fluoronaphthalen-1-Yl)-1-Fluoro-12-(((2R)-2-Methoxy-6-Methylenetetrahydro-1H-Pyrrolizin-7a (5H)-Yl)Methoxy)-5-Methyl-5a,6,7,8,9,10-Hexahydro-5H-4-Oxa-3,10a,11,13,14-Pentaaza-6,9-Methanonaphtho[1,8-Ab]Heptalene] | 7.85 | 7.26 | 7.06
– | – | – | C#Cc1c(F)ccc2cccc(-c3nc4c5c(nc(OCC67CC(=C)CN6C[C@@H](OC)C7)nc5c3F)N3C[C@H]5CC[C@H](N5)[C@H]3[C@H](C)O4)c12 (stereo partly drawn) [Example Z692, (5S,5aS,6S,9R)-2-(8-ethynyl-7-fluoronaphthalen-1-yl)-1-fluoro-12-(((2S)-2-methoxy-6-methylenetetrahydro-1H-pyrrolizin-7a (5H)-yl)methoxy)-5-methyl-5a,6,7,8,9,10-hexahydro-5H-4-oxa-3,10a,11,13,14-pentaaza-6,9-methanonaphtho[1,8-ab]heptalene] | 6.73 | 6.42 | 6.54
– | – | – | C#Cc1c(F)ccc2cccc(-c3nc4c5c(nc(OCC6(CN7CCOCC7)CC6)nc5c3F)N3C[C@H]5CC[C@H](N5)[C@H]3[C@H](C)O4)c12 [Example Z693, (58,5aS,6S,9R)-2-(8-ethynyl-7-fluoronaphthalen-1-yl)-1-fluoro-5-methyl-12-((1-(morpholinomethyl)cyclopropyl)methoxy)-5a,6,7,8,9,10-hexahydro-5H-4-oxa-3,10a, 11, 13,14-pentaaza-6,9-methanonaphtho[1,8-ab]heptalene] | 8.03 | 7.56 | 7.51
– | – | – | C#Cc1c(F)ccc2cccc(-c3nc4c5c(nc(OCC6(CN7CCC(=C)C7)CC6)nc5c3F)N3C[C@H]5CC[C@H](N5)[C@H]3[C@H](C)O4)c12 [Example Z698, (5S,5aS,6S,9R)-2-(8-Ethynyl-7-Fluoronaphthalen-1-Yl)-1-Fluoro-5-Methyl-12-((1-((3-Methylenepyrrolidin-1-Yl)Methyl)Cyclopropyl)Methoxy)-5a,6,7,8,9,10-Hexahydro-5H-4-Oxa-3,10a,11,13,14-Pentaaza-6,9-Methanonaphtho[1,8-Ab]Heptalene] | 7.66 | 7.73 | 7.31
– | – | – | C#Cc1cccc2cc(N)cc(-c3nc4c5c(nc(OCC67CC(=C)CN6C[C@H](F)C7)nc5c3F)N3C[C@H]5CC[C@H](N5)[C@H]3[C@H](C)O4)c12 (stereo partly drawn) [Example Z699, 5-ethynyl-4-((5S,5aS,6S,9R)-1-fluoro-12-(((2R)-2-fluoro-6-methylenetetrahydro-1H-pyrrolizin-7a (5H)-yl)methoxy)-5-methyl-5a,6,7,8,9,10-hexahydro-5H-4-oxa-3,10a, 11,13,14-pentaaza-6,9-methanonaphtho[1,8-ab]heptalen-2-yl) naphthalen-2-amine] | 9.36 | 8.70 | 8.63
– | – | – | C#Cc1cccc2cc(N)cc(-c3nc4c5c(nc(OCC6(CN7CCOCC7)CC6)nc5c3F)N3C[C@H]5CC[C@H](N5)[C@H]3[C@H](C)O4)c12 [Example Z700, 5-Ethynyl-4-((5S,5aS,6S,9R)-1-Fluoro-5-Methyl-12-((1-(Morpholinomethyl)Cyclopropyl)Methoxy)-5a,6,7,8,9,10-Hexahydro-5H-4-Oxa-3,10a, 11,13,14-Pentaaza-6,9-Methanonaphtho[1,8-Ab]Heptalen-2-Yl) Naphthalen-2-Amine] | 9.41 | 8.72 | 8.67
